Measurements reported in US10597388B2, “Pyridazinone herbicides” (FMC CORPORATION, priority 2014, dated 2020).

Legend:
Assay type in all cases: in vivo
corn (Zea mays) = assay: Test A greenhouse herbicide test, pre- and postemergence; conditions: Postemergence; for Plant response rating, Corn: 125 g ai/ha, 0 to 100 scale where 0 is no effect and 100 is complete control; for Corn plant response rating: 500 g ai/ha, 0 to 100 scale, 0 is no effect, 100 is complete control
Procedure, shortened: (§1)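 Seeds in loam–sand blend received a preemergence directed soil spray; plants at 2–10 cm, one- to two-leaf stage, received postemergence sprays. Compounds in a non-phytotoxic solvent with surfactant. After about 10 d in a greenhouse, injury rated visually versus untreated controls on a 0–100 scale (100 = complete control).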

[1] = tested on: ragweed (common ragweed, Ambrosia elatior); assay: as above
Procedure, shortened: as §1

[2] = tested on: barnyardgrass (Echinochloa crus-galli); assay: as above
Procedure, shortened: as §1

kochia (Kochia scoparia) [3] = assay: as above
Procedure, shortened: as §1

[4] = tested on: pigweed (Amaranthus retroflexus); assay: as above
Procedure, shortened: as §1

[5] = tested on: wheat (Triticum aestivum); assay: as above; conditions: Postemergence; for Plant response rating, Wheat: 125 g ai/ha, 0 to 100 scale where 0 is no effect and 100 is complete control; for Wheat plant response rating: 500 g ai/ha, 0 to 100 scale, 0 is no effect, 100 is complete control
Procedure, shortened: as §1

kochia (Kochia scoparia) [6] = assay: Test C greenhouse herbicide test, postemergence
Procedure, shortened: (§2)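 Greenhouse postemergence spray on plants 2–18 cm tall; response judged visually after 13–15 d relative to untreated controls using a 0 (none) to 100 (full control) scale.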

[7] = tested on: oat, wild (wild oat, Avena fatua); assay: Test C greenhouse herbicide test, postemergence
Procedure, shortened: as §2

[8] = tested on: galium (catchweed bedstraw, Galium aparine); assay: Test A greenhouse herbicide test, postemergence; conditions: for Plant response rating, Galium: 125 g ai/ha, 0 to 100 scale where 0 is no effect and 100 is complete control; for Galium plant response rating: 500 g ai/ha, 0 to 100 scale, 0 is no effect, 100 is complete control
Procedure, shortened: (§3)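 Pot-grown plants (loam soil/sand blend), 2–10 cm tall at the one- to two-leaf stage, received postemergence sprays of formulated test chemical. After about 10 d in the greenhouse, injury was rated visually against untreated controls on a 0 (no effect) to 100 (complete control) scale.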

[9] = tested on: blackgrass (Alopecurus myosuroides); assay: Test A greenhouse herbicide test, postemergence; conditions: for Plant response rating, Blackgrass: 125 g ai/ha, 0 to 100 scale where 0 is no effect and 100 is complete control; for Blackgrass plant response rating: 500 g ai/ha, 0 to 100 scale, 0 is no effect, 100 is complete control
Procedure, shortened: as §3

[10] = tested on: crabgrass, large (large crabgrass, Digitaria sanguinalis); assay: Test C greenhouse herbicide test, pre- and postemergence
Procedure, shortened: (§4)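 Seeds sown in loam–sand blend treated preemergence; plants in peat-based medium sprayed postemergence at 2–18 cm (1- to 4-leaf stage); chemicals in non-phytotoxic solvent with surfactant. Greenhouse 13–15 d, then visual rating versus controls on 0–100 scale (0 no effect, 100 complete control).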

[11] = tested on: oilseed rape (Brassica napus); assay: as above
Procedure, shortened: as §4

[12] = Postemergence, 125 g ai/ha, 0 to 100 scale where 0 is no effect and 100 is complete control
[13] = Postemergence, 500 g ai/ha, 0 to 100 scale, 0 is no effect, 100 is complete control
[14] = Preemergence, 125 g ai/ha, 0 to 100 scale where 0 is no effect and 100 is complete control
[15] = Preemergence, 500 g ai/ha, 0 to 100 scale, 0 no effect, 100 complete control
[16] = Postemergence, 31 g ai/ha, 0 to 100 scale (0 no effect, 100 complete control)
[17] = Postemergence, 125 g ai/ha, scale 0 to 100, 0 is no effect, 100 is complete control
[18] = Postemergence, 250 g ai/ha, scale 0 to 100, 0 no effect, 100 complete control, 13 to 15 d
[19] = postemergence, 62 g ai/ha, scale 0 to 100, 0 no effect, 100 complete control
[20] = Preemergence, 31 g ai/ha, scale 0 to 100, 0 is no effect, 100 is complete control
[21] = Preemergence, 62 g ai/ha, scale 0 to 100, 0 is no effect, 100 is complete control
[22] = Preemergence, 125 g ai/ha, scale 0 to 100, 0 is no effect, 100 is complete control
[23] = Preemergence, 250 g ai/ha, scale 0 to 100 (0 no effect, 100 complete control)

Cc1nn(C)c(=O)c(-c2c(C)sc3ccccc23)c1O [Compound 65]
Plant response rating, Corn (corn (Zea mays)): 0
Corn plant response rating (corn (Zea mays)): 0
Plant response rating, Ragweed [1, 12]: 50
Ragweed plant response rating [1, 13]: 90
Ragweed plant response rating [1, 14]: 70
Plant response rating, Ragweed [1, 15]: 80
Plant response rating, Barnyardgrass [2, 12]: 20
Barnyardgrass plant response rating [2, 13]: 90
Barnyardgrass plant response rating [2, 14]: 60
Plant response rating, Barnyardgrass [2, 15]: 90
Plant response rating, Kochia (kochia (Kochia scoparia) [3]; [12]): 90
Kochia plant response rating (kochia (Kochia scoparia) [3]; [13]): 90
Kochia plant response rating (kochia (Kochia scoparia) [3]; [14]): 60
Plant response rating, Kochia (kochia (Kochia scoparia) [3]; [15]): 90
Plant response rating, Pigweed [4, 12]: 80
Pigweed plant response rating [4, 13]: 90
Pigweed plant response rating [4, 14]: 100
Plant response rating, Pigweed [4, 15]: 100
Plant response rating, Wheat [5]: 0
Wheat plant response rating [5]: 0
Kochia plant response rating (kochia (Kochia scoparia) [6]; [16]): 90
Plant response rating, Kochia (kochia (Kochia scoparia) [6]; [17]): 90
Plant response rating, Kochia (kochia (Kochia scoparia) [6]; [18]): 100
Kochia plant response rating (kochia (Kochia scoparia) [6]; [19]): 90
Oat, Wild plant response rating [7, 16]: 25
Plant response rating, Oat, Wild [7, 17]: 50
Plant response rating, Oat, Wild [7, 18]: 70
Oat, Wild plant response rating [7, 19]: 35
Plant response rating, Galium [8]: 90
Galium plant response rating [8]: 100
Plant response rating, Blackgrass [9]: 20
Blackgrass plant response rating [9]: 70
Crabgrass, Large plant response rating [10, 16]: 5
Plant response rating, Crabgrass, Large [10, 17]: 20
Plant response rating, Crabgrass, Large [10, 18]: 25
Crabgrass, Large plant response rating [10, 19]: 20
Oilseed Rape plant response rating [11, 16]: 0
Plant response rating, Oilseed Rape [11, 17]: 0
Plant response rating, Oilseed Rape [11, 18]: 5
Oilseed Rape plant response rating [11, 19]: 0

Cc1cc(C)c2sc(C)c(-c3c(OC(=O)OC(C)C)c(C)nn(C)c3=O)c2c1 [Compound 67]
Plant response rating, Corn (corn (Zea mays)): 0
Corn plant response rating (corn (Zea mays)): 0
Plant response rating, Ragweed [1, 12]: 50
Ragweed plant response rating [1, 13]: 70
Ragweed plant response rating [1, 14]: 80
Plant response rating, Ragweed [1, 15]: 80
Plant response rating, Barnyardgrass [2, 12]: 20
Barnyardgrass plant response rating [2, 13]: 70
Barnyardgrass plant response rating [2, 14]: 30
Plant response rating, Barnyardgrass [2, 15]: 90
Plant response rating, Kochia (kochia (Kochia scoparia) [3]; [12]): 20
Kochia plant response rating (kochia (Kochia scoparia) [3]; [13]): 30
Kochia plant response rating (kochia (Kochia scoparia) [3]; [14]): 20
Plant response rating, Kochia (kochia (Kochia scoparia) [3]; [15]): 20
Plant response rating, Pigweed [4, 12]: 20
Pigweed plant response rating [4, 13]: 20
Pigweed plant response rating [4, 14]: 90
Plant response rating, Pigweed [4, 15]: 100
Plant response rating, Wheat [5]: 0
Wheat plant response rating [5]: 0
Kochia plant response rating (kochia (Kochia scoparia) [6]; [16]): 0
Plant response rating, Kochia (kochia (Kochia scoparia) [6]; [17]): 35
Plant response rating, Kochia (kochia (Kochia scoparia) [6]; [18]): 80
Kochia plant response rating (kochia (Kochia scoparia) [6]; [19]): 30
Oat, Wild plant response rating [7, 16]: 80
Plant response rating, Oat, Wild [7, 17]: 90
Plant response rating, Oat, Wild [7, 18]: 100
Oat, Wild plant response rating [7, 19]: 85
Plant response rating, Galium [8]: 80
Galium plant response rating [8]: 90
Plant response rating, Blackgrass [9]: 70
Blackgrass plant response rating [9]: 80
Crabgrass, Large plant response rating [10, 16]: 35
Plant response rating, Crabgrass, Large [10, 17]: 35
Plant response rating, Crabgrass, Large [10, 18]: 40
Plant response rating, Crabgrass, Large [10, 20]: 10
Plant response rating, Crabgrass, Large [10, 21]: 70
Plant response rating, Crabgrass, Large [10, 22]: 10
Crabgrass, Large plant response rating [10, 23]: 65
Crabgrass, Large plant response rating [10, 19]: 35
Oilseed Rape plant response rating [11, 16]: 40
Plant response rating, Oilseed Rape [11, 17]: 75
Plant response rating, Oilseed Rape [11, 18]: 75
Plant response rating, Oilseed Rape [11, 20]: 0
Plant response rating, Oilseed Rape [11, 21]: 0
Plant response rating, Oilseed Rape [11, 22]: 0
Oilseed Rape plant response rating [11, 23]: 20
Oilseed Rape plant response rating [11, 19]: 50
